# Assay results reported in US9927424B2, “Assays for identifying compounds that modulate bitter taste” (Chromocell Corporation, priority 2013, dated 2018).
# Biological target: T1, TAS2R4 (Homo sapiens, UniProt Q9NYW5)
# T1 construct: expressed in transfected cells
# T1 sequence (Q9NYW5 1-299): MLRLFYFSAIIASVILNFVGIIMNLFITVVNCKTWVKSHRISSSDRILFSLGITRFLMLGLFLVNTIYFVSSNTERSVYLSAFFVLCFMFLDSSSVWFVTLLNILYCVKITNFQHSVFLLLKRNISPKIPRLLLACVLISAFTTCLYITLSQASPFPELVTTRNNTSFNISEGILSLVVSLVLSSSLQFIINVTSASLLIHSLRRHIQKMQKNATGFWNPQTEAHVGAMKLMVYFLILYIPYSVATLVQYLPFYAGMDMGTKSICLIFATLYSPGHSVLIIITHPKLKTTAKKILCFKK
# Test: Calcium fluorescence functional assay, TAS2R4 cell line with mouse Gα15
# Type: cell-based
# Settings: 20 mM tastant; change in intracellular calcium
# Protocol: (§1) A panel of cell lines expressing eight specific bitter taste receptors, a subset of the panel of twenty-five bitter receptors described in International Patent Application Publication WO 2010/088633 (see, e.g., Example 26), was used for the purpose of these analyses. Accordingly, each cell line of the panel expressed a human bitter taste receptor and mouse Gα15 signaling protein.
# (§2) Each of the Examples below utilized the following functional assay: • Day 1: Stable cell lines were seeded onto black wall/clear bottom 96-well, plates (e.g., Corning, 3904). Approximately 40K cells were added per well and incubated at 37° C., 5% CO2 overnight in cell growth media (DMEM (Sigma, D5796) supplemented with 10% Fetal Bovine Serum (Sigma, 5178), 2 mM Glutamine (Sigma, G7513)). • Day 2: Growth media was discarded and cells were incubated at 37° C., 5% CO2 for 60 minutes in 100 ul of load solution containing 1× Ca-3 dye (Molecular Devices, R8090), 1% DMSO in buffer containing 130 mM NaCl, 2 mM CaCl2, 5 mM KCl, 1.2 mM MgCl2, 10 mM HEPES and 10 mM Glucose (pH 7.0). Probenecid was not included in the load solution. • Functional assay: After dye loading, cell plates were placed in a fluorescent plate reader (e.g., FDSS6000 (Hamamatsu, Japan)) and receptor stimulation was measured by adding 50 ul of 3× concentrated ligand/agonist stock. Fluorescence was monitored continuously for 10 s before agonist addition and for 100-250 s after stimulation with agonist.
# (§3) Receptor Activation is defined as follows: • % Activation=[((Maximum signal fluorescence−Minimum signal fluorescence)−(Maximum control fluorescence−Minimum control fluorescence))/(Maximum buffer fluorescence−Minimum buffer fluorescence)]*100 • Functional Response=[(Maximum signal fluorescence−Minimum signal fluorescence)−(Maximum control fluorescence−Minimum control fluorescence)] • Signal fluorescence: refers to the change in fluorescence seen with addition of ligand • Control fluorescence: refers to the change in fluorescence seen with addition of buffer (negative control) • Calcium signals from ligand and control were normalized to the basal fluorescence of the cells prior to the stimulation.
# (§4) A concentration analysis was performed and EC50 values were calculated by nonlinear regression using the formula: Y=Bottom+(Top−Bottom)/(1+10^((Log EC50−X)*Hill Slope)), X=log of dose or concentration, Y=Response (increasing as X increases), Top=maximum signal, Bottom=minimum signal. EC50 (half maximal effective concentration) refers to the molar concentration of the agonist which produces 50% of the maximum possible effective response from that agonist.
row,SMILES,TAS2R4 bitter receptor activity (functional response)
1,CC(=O)[O-].[K+] [potassium acetate],induced
2,O=C([O-])c1ccccc1.[K+] [potassium benzoate],induced
3,O=C([O-])[C@H](O)[C@@H](O)[C@H](O)[C@H](O)CO.[K+] [potassium gluconate],induced
4,O=[N+]([O-])[O-].[K+] [potassium nitrate],induced
5,O=P([O-])([O-])O.[K+].[K+] [potassium phosphate (dibasic)],induced
6,C/C=C/C=C/C(=O)[O-].[K+] [potassium sorbate],induced
7,O=S(=O)([O-])[O-].[K+].[K+] [potassium sulfate],induced

# Same assay, conditions: approximately; increasing concentrations of tastant
row,SMILES,EC50
1,CC(=O)[O-].[K+] [potassium acetate],5 to 10 mM
2,O=C([O-])c1ccccc1.[K+] [potassium benzoate],5 to 10 mM

# Biological target: T2, TAS2R9 (Homo sapiens, UniProt Q9NYW1)
# T2 construct: expressed in transfected cells
# T2 sequence (Q9NYW1 1-312): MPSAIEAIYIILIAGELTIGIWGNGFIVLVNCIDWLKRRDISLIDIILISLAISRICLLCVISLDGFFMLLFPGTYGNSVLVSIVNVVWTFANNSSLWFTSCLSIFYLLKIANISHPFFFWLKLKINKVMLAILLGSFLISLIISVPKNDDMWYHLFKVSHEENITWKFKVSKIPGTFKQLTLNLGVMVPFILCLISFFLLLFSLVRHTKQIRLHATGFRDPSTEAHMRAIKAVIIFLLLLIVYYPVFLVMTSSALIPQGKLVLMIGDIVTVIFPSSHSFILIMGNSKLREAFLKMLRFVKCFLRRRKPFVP
# Test: Calcium fluorescence functional assay, TAS2R9 cell line with mouse Gα15
# Type: cell-based
# Settings: 20 mM tastant; change in intracellular calcium
# Protocol: as §1, §2, §3, §4
row,SMILES,TAS2R9 bitter receptor activity (functional response)
1,CC(=O)[O-].[K+] [potassium acetate],induced
2,O=C([O-])c1ccccc1.[K+] [potassium benzoate],induced
3,O=C([O-])[C@H](O)[C@@H](O)[C@H](O)[C@H](O)CO.[K+] [potassium gluconate],induced
4,O=[N+]([O-])[O-].[K+] [potassium nitrate],induced
5,O=P([O-])([O-])O.[K+].[K+] [potassium phosphate (dibasic)],induced
6,C/C=C/C=C/C(=O)[O-].[K+] [potassium sorbate],induced
7,O=S(=O)([O-])[O-].[K+].[K+] [potassium sulfate],induced

# Same assay, conditions: approximately; increasing concentrations of tastant
row,SMILES,EC50
1,CC(=O)[O-].[K+] [potassium acetate],5 to 10 mM
2,O=C([O-])c1ccccc1.[K+] [potassium benzoate],5 to 10 mM

# Biological target: T3, TAS2R13 (Homo sapiens, UniProt Q9NYV9)
# T3 construct: expressed in transfected cells
# T3 sequence (Q9NYV9 1-303): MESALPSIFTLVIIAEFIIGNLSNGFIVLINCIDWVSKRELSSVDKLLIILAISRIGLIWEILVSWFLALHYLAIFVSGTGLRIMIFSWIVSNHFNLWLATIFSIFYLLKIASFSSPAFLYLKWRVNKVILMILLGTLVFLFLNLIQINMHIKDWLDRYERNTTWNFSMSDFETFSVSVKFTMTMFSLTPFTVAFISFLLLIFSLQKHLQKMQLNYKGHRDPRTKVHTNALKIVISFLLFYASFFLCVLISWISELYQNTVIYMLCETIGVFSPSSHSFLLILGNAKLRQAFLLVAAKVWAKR
# Test: Calcium fluorescence functional assay, TAS2R13 cell line with mouse Gα15
# Type: cell-based
# Settings: 20 mM tastant; change in intracellular calcium
# Protocol: as §1, §2, §3, §4
row,SMILES,TAS2R13 bitter receptor activity (functional response)
1,CC(=O)[O-].[K+] [potassium acetate],induced
2,O=C([O-])c1ccccc1.[K+] [potassium benzoate],induced
3,O=C([O-])[C@H](O)[C@@H](O)[C@H](O)[C@H](O)CO.[K+] [potassium gluconate],induced
4,O=[N+]([O-])[O-].[K+] [potassium nitrate],induced
5,O=P([O-])([O-])O.[K+].[K+] [potassium phosphate (dibasic)],induced
6,C/C=C/C=C/C(=O)[O-].[K+] [potassium sorbate],induced
7,O=S(=O)([O-])[O-].[K+].[K+] [potassium sulfate],induced

# Same assay, conditions: approximately; increasing concentrations of tastant
row,SMILES,EC50
1,CC(=O)[O-].[K+] [potassium acetate],5 to 10 mM
2,O=C([O-])c1ccccc1.[K+] [potassium benzoate],5 to 10 mM

# Biological target: T4, TAS2R38 (PAV) (Homo sapiens, UniProt P59533, A49P/I296V)
# T4 construct: expressed in transfected cells
# T4 sequence (P59533 1-333 A49P/I296V): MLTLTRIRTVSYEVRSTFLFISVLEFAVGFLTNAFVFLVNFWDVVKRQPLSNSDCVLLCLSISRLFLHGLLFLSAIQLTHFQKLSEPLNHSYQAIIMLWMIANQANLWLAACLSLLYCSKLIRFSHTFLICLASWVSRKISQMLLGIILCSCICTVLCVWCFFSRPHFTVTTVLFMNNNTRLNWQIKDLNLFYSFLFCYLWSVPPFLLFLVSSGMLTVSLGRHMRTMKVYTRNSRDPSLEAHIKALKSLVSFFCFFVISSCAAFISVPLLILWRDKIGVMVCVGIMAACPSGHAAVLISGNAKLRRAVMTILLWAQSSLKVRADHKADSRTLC
# Test: Calcium fluorescence functional assay, TAS2R38 (PAV) cell line with mouse Gα15
# Type: cell-based
# Settings: 20 mM tastant; change in intracellular calcium
# Protocol: as §1, §2, §3, §4
row,SMILES,TAS2R38 (PAV) bitter receptor activity (functional response)
1,[Cl-].[K+] [KCl],strongly and specifically responded
2,CC(=O)[O-].[K+] [potassium acetate],did not induce
3,O=C([O-])c1ccccc1.[K+] [potassium benzoate],induced
4,O=C([O-])[C@H](O)[C@@H](O)[C@H](O)[C@H](O)CO.[K+] [potassium gluconate],induced
5,O=[N+]([O-])[O-].[K+] [potassium nitrate],induced
6,O=P([O-])([O-])O.[K+].[K+] [potassium phosphate (dibasic)],induced
7,C/C=C/C=C/C(=O)[O-].[K+] [potassium sorbate],induced
8,O=S(=O)([O-])[O-].[K+].[K+] [potassium sulfate],induced

# Same assay, conditions: approximately; increasing concentrations of tastant
row,SMILES,EC50
1,[Cl-].[K+] [KCl],5 to 15 mM
2,O=C([O-])c1ccccc1.[K+] [potassium benzoate],5 to 10 mM

# Biological target: T3, TAS2R13
# Test: not given
# Settings: PCT/US12/61400; cited from earlier work
row,SMILES,"TAS2R13 response to stimulation, previously shown"
1,[Cl-].[K+] [KCl],specifically respond

# Biological target: T5, TAS2R60 (Homo sapiens, UniProt P59551)
# T5 construct: expressed in transfected cells
# T5 sequence (P59551 1-318): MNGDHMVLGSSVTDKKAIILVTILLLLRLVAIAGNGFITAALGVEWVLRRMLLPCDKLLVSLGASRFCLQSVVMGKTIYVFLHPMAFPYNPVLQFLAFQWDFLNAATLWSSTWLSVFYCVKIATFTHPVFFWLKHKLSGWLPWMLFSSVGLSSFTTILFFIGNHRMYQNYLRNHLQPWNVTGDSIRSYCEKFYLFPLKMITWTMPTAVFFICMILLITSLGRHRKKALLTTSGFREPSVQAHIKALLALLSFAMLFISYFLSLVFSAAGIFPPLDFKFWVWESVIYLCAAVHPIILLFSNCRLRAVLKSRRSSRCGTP
# Test: not given
# Settings: PCT/US12/61400; cited from earlier work
row,SMILES,"TAS2R60 response to stimulation, previously shown"
1,[Cl-].[K+] [KCl],specifically respond
